Laboratory results from paper PMC6218569, “Structural and Functional Characterization of PA14/Flo5-Like Adhesins From Komagataella pastoris” (Frontiers in Microbiology, 2018).

How the values were obtained:
Cea1A (=KpFlo1A) [1] = biological target: T1, Cea1A (=KpFlo1A) (Komagataella pastoris, UniProt A0A1B2J5V1); experiment: ITC and co-crystal structure ([…] Å); assay type: binding; conditions: read-out: Cea1A•N,N′-diacetylchitobiose
T1 construct: gene ATY40_BA7500007; A domain, D78-E296, N-terminally His6-tagged
T1 sequence (A0A1B2J5V1 entry or part of it): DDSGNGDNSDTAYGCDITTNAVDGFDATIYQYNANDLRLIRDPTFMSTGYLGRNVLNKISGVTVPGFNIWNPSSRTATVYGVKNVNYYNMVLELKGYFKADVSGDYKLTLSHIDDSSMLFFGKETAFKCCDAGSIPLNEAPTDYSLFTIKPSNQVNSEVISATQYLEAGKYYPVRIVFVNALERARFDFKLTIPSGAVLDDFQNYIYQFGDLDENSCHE

Cea1A (=KpFlo1A) [2] = biological target: T1, Cea1A (=KpFlo1A); experiment: ITC and co-crystal structure ([…] Å); assay type: binding
Cea1A (=KpFlo1A) [3] = biological target: T1, Cea1A (=KpFlo1A); experiment: weak binding KD (Supplementary Figure S6), validated by fluorescence titration

## CC(=O)N[C@H]1[C@H](O[C@H]2[C@H](O)[C@@H](NC(C)=O)C(O)O[C@@H]2CO)O[C@H](CO)[C@@H](O)[C@@H]1O (stereo partly drawn) [N,N′-diacetylchitobiose]
Cea1A (=KpFlo1A) [1]
  Kd: 13.1 ± 3.56 µM

## CC(=O)N[C@@H]1[C@@H](O)[C@H](O)[C@@H](CO)O[C@H]1O [GlcNAc]
Cea1A (=KpFlo1A) [2]
  Kd: 7.67 ± 0.49 µM

## OC[C@H]1OC(O)[C@H](O)[C@@H](O)[C@@H]1O (stereo partly drawn) [glucose]
Cea1A (=KpFlo1A) [3]
  Kd: 2380 µM
